Laboratory results from patent US20160045503A1, “FORMULATIONS CONTAINING REVERSIBLE COVALENT COMPOUNDS” (PRINCIPIA BIOPHARMA INC., priority 2012, published 2016).
Each block holds one molecule with its values, some of them ahead of it.

Columns and labels:
[1] = Determination of Bioavailability, stomach (oral gavage) v. intraduodenal administration; format: in vivo, Rats; conditions: rat; for % increase: ID versus PO; for AUC / Cmax / bioavailability: plasma
Method: Rats with surgically implanted intra-duodenal catheters were obtained commercially. Rats were dosed with solution or suspension of (S)-2-(2-((4-amino-3-(2-fluoro-4-phenoxyphenyl)-1H-pyrazolo[3,4-d]pyrimidin-1-yl)methyl)pyrrolidine-1-carbonyl)-4-methyl-4-morpholinopent-2-enenitrile; via bolus injection: oral gavage was done to measure exposure after oral dosing, or dosing via administration through the intra-duodenal catheter to measure exposure bypassing the stomach. […] Blood was withdrawn at time points out to 24 hours and compound quantitated via LC/MS/MS to obtain plasma concentrations. PK parameters were calculated via commercially available software and measures of exposure were used to assess differences in dosing routes. The table below summarizes exposures as measured by area under the curve (AUC), concentration at its maximum (Cmax), and bioavailability.

[2] = biological target: human recombinant Btk (Homo sapiens, UniProt Q06187); test: Btk Enzymatic Activity Assay (Caliper-based kinase assay); format: biochemical; conditions: human recombinant Btk 2 nM, ATP 40 uM, peptide substrate 1 uM, room temperature, 3 h
Method: A Caliper-based kinase assay (Caliper Life Sciences, Hopkinton, Mass.) was used to measure inhibition of Btk kinase activity of a compound of Formula (I). […] The reaction was then terminated with EDTA, final concentration 20 mM and the phosphorylated reaction product was quantified on a Caliper Desktop Profiler (Caliper LabChip 3000). […] This value is presented as the IC50.

[3] = tested on: protein target; test: Reversibility of Binding (compound in solution before and after denaturation or digestion of the target, HPLC-MS/MS); conditions: for Compound in solution in the denatured or digested state?: after denaturation with 5 M guanidine hydrochloride and digestion with trypsin; for compound in solution following perturbation of the target: perturbed state; for Compound in solution in the native state?: target in excess over compound
Method: The following approach was developed to differentiate compounds that form irreversible bonds with their targets, such as acrylamide compounds, from compound that bind reversibly. […] The reactions were then treated with perturbations including both denaturation with 5 M guanidine hydrochloride and digestion with trypsin, disrupting proper folding of the target. […] The concentration of compound in solution was assessed both preceding and following perturbation using high performance liquid chromatography (HPLC) coupled to tandem mass spectrometry.

[4] = 20 mg/kg, ID (intra-duodenal), 20 mg/kg in 15% cyclodextrin, Experiment 1
[5] = 20 mg/kg, ID (intra-duodenal), 20 mg/kg in 15% cyclodextrin, Experiment 2
[6] = 100 mg/kg, ID 100 mg/kg, 0.5% xanthum gum suspension
[7] = po, 20 mg/kg, 20 mg/kg in 15% cyclodextrin, Experiment 1
[8] = po, 20 mg/kg, 20 mg/kg in 15% cyclodextrin, Experiment 2
[9] = po, 100 mg/kg, PO 100 mg/kg, 0.5% xanthum gum suspension

human recombinant Btk, sequence (Q06187 whole entry): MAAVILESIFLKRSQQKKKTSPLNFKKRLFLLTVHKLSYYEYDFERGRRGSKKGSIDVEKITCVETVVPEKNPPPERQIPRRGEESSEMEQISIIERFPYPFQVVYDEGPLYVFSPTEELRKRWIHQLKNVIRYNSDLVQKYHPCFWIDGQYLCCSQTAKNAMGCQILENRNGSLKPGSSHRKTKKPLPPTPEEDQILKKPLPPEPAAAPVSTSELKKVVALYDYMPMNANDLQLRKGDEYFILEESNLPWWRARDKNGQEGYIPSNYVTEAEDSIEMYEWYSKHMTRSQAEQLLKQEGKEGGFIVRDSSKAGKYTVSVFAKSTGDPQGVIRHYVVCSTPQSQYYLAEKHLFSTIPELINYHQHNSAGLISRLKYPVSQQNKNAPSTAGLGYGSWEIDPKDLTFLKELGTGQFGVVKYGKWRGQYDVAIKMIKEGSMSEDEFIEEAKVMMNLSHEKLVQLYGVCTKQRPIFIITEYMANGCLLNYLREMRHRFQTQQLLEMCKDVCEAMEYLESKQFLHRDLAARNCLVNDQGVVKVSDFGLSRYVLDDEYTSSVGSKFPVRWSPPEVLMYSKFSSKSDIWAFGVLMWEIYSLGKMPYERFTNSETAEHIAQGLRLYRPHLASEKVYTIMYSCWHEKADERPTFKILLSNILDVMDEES

% increase ([1]; 20 mg/kg in 15% cyclodextrin, Experiment 1): 409%
% increase ([1]; 20 mg/kg in 15% cyclodextrin, Experiment 2): 232%
% increase ([1]; 100 mg/kg, 0.5% xanthum gum suspension): 220%
AUC [1, 4]: 630 ng·h/mL
Cmax [1, 4]: 1400 ng/mL
AUC [1, 5]: 1500 ng·h/mL
Cmax [1, 5]: 1650 ng/mL
bioavailability [1, 4]: 27%
bioavailability [1, 5]: 64.6%
AUC [1, 6]: 1900 ng·h/mL
Cmax [1, 6]: 870 ng/mL
bioavailability [1, 6]: 16.3%
AUC [1, 7]: 154 ng·h/mL
Cmax [1, 7]: 145 ng/mL
AUC [1, 8]: 647 ng·h/mL
Cmax [1, 8]: 406 ng/mL
bioavailability [1, 7]: 6.6%
bioavailability [1, 8]: 27.8%
AUC [1, 9]: 858 ng·h/mL
Cmax [1, 9]: 149 ng/mL
bioavailability [1, 9]: 7.4%
Molecule: CC(C)(C=C(C#N)C(=O)N1CCC[C@H]1Cn1nc(-c2ccc(Oc3ccccc3)cc2F)c2c(N)ncnc21)N1CCOCC1 [Cpd 95B, (S)-2-(2-((4-amino-3-(2-fluoro-4-phenoxyphenyl)-1H-pyrazolo[3,4-d]pyrimidin-1-yl)methyl)pyrrolidine-1-carbonyl)-4-methyl-4-morpholinopent-2-enenitrile]

IC50 [2]: 3 nM
Molecule: N#CC(=CC1CC1)C(=O)N1CCC[C@H]1Cn1nc(-c2ccc(Oc3c(F)cccc3F)cc2F)c2c(N)ncnc21 [Cpd 44B, (S)-2-(2-((4-amino-3-(2-fluoro-4-(2,6-difluorophenoxy)phenyl)-1H-pyrazolo[3,4-d]pyrimidin-1-yl)methyl)pyrrolidine-1-carbonyl)-3-cyclopropylacylonitrile]

IC50 [2]: 6 nM
Molecule: C[C@@H](Cn1nc(-c2ccc(Oc3ccccc3)cc2F)c2c(N)ncnc21)NC(=O)C(C#N)=CC(C)(C)N [Cpd 195, (S)-4-amino-N-(1-(4-amino-3-(2-fluoro-4-phenoxyphenyl)-1H-pyrazolo[3,4-d]-pyrimidin-1-yl)propan-2-yl)-2-cyano-4-methylpent-2-enamide]

IC50 [2]: 3.7 nM
Molecule: N#CC(=CC1CC1)C(=O)N1CCCC1Cn1nc(-c2ccc(Oc3ccccc3)cc2)c2c(N)ncnc21 (stereo not shown) [Cpd 2, 2-(2-((4-amino-3-(4-phenoxyphenyl)-1H-pyrazolo[3,4-d]pyrimidin-1-yl)methyl)pyrrolidine-1-carbonyl)-3-cyclopropylacrylonitrile]

Compound in solution in the denatured or digested state? [3]: yes
compound in solution following perturbation of the target [3]: returned to solution
Compound in solution in the native state? ([3]; before perturbation): no
Molecule: N#CC(=CC1CC1)C(=O)N1CCC[C@@H]1Cn1nc(-c2ccc(Oc3ccccc3)cc2F)c2c(N)ncnc21 [Cpd 27A, (R)-2-(2-((4-amino-3-(2-fluoro-4-phenoxyphenyl)-1H-pyrazolo[3,4-d]pyrimidin-1-yl)methyl)pyrrolidine-1-carbonyl)-3-cyclopropylacrylonitrile]

IC50 [2]: 6 nM
Molecule: CC(C)C=C(C#N)C(=O)N1CCC[C@H]1Cn1nc(-c2ccc(Oc3cccc(F)c3F)cc2F)c2c(N)ncnc21 [Cpd 102B, (S)-2-(2-((4-amino-3-(4-(2,3-difluorophenoxy)-2-fluorophenyl)-1H-pyrazolo[3,4-d]pyrimidin-1-yl)methyl)pyrrolidine-1-carbonyl)-4-methylpent-2-enenitrile]

IC50 [2]: 52 nM
Molecule: N#CC(=CC1(N)CC1)C(=O)N1CCC[C@@H]1Cn1nc(-c2ccc(Oc3ccccc3)cc2F)c2c(N)ncnc21 [Cpd 90A, (R)-2-(2-((4-amino-3-(2-fluoro-4-phenoxyphenyl)-1H-pyrazolo[3,4-d]pyrimidin-1-yl)methyl)pyrrolidine-1-carbonyl)-3-(1-aminocyclopropyl)acrylonitrile]

Molecule: C=CC(=O)N1CCC[C@@H](n2nc(-c3ccc(Oc4ccccc4)cc3)c3c(N)ncnc32)C1 [reference compound]
Compound in solution in the denatured or digested state? [3]: no
depletion of compound from solution in the native (folded) state ([3]; before perturbation): depleted from solution
compound in solution following perturbation of the target [3]: depleted from solution
Compound in solution in the native state? ([3]; before perturbation): no

IC50 [2]: 1.4 nM
Molecule: CNC(C)(C)C=C(C#N)C(=O)N1CCC[C@@H]1Cn1nc(C2(Oc3ccccc3)C=CC=CC2F)c2c(N)ncnc21 (stereo partly drawn) [Cpd 83A, (R)-2-(2-((4-amino-3-(2-fluoro-1-phenoxyphenyl)-1H-pyrazolo[3,4-d]pyrimidin-1-yl)methyl)pyrrolidine-1-carbonyl)-4-methyl-4-(methylamino)pent-2-enenitrile]

IC50 [2]: 25.5 nM
Molecule: CNC(C)(C)C=C(C#N)C(=O)N1CCC[C@H]1Cn1nc(-c2ccc(Oc3cccc(F)c3F)cc2F)c2c(N)ncnc21 [Cpd 105B]

IC50 [2]: 1 nM
Molecule: COc1cc(-c2nn(CC3CCCN3C(=O)C(C#N)=CC3CC3)c3ncnc(N)c23)ccc1Oc1ccc(Cl)c(Cl)c1 (stereo not shown) [Cpd 5]

IC50 [2]: 5.4 nM
Molecule: CC(C)(C)C=C(C#N)C(=O)N1CCCC1Cn1nc(-c2ccc(Oc3ccccc3)cc2)c2c(N)ncnc21 (stereo not shown) [Cpd 10, 2-(2-((4-amino-3-(4-phenoxyphenyl)-1H-pyrazolo[3,4-d]pyrimidin-1-yl)methyl)pyrrolidine-1-carbonyl)-4,4-dimethylpent-2-enenitrile]

IC50 [2]: 130 nM
Molecule: CC(C)(C)C=C(C#N)C(=O)N1CCC(n2nc(-c3ccc(Oc4ccccc4)cc3)c3c(N)ncnc32)CC1 [Cpd 8, 2-(4-(4-amino-3-(4-phenoxyphenyl)-1H-pyrazolo[3,4-d]pyrimidin-1-yl)piperidine-1-carbonyl)-4,4-dimethylpent-2-enenitrile]

Molecule: (S)-4-amino-2-(2-((4-amino-3-(4-(2,3-difluorophenoxy)-2-fluorophenyl)-1H-pyrazolo[3,4-d]pyrimidin-1-yl)methyl)pyrimidine-1-carbonyl)-4-methylpent-2-enenitrile [Cpd 104B]
IC50 [2]: 20 nM

IC50 [2]: 34 nM
Molecule: CC(C)(C)C=C(C#N)C(=O)N1CCC[C@H]1Cn1cc(-c2ccc(Oc3cccc(F)c3F)cc2)c2c(N)ncnc21 [Cpd 173B, (S)-2-(2-((4-amino-5-(4-(2,3-difluorophenoxy)phenyl)-7H-pyrrolo[2,3-d]pyrimidin-7-yl)methyl)pyrrolidine-1-carbonyl)-4,4-dimethylpent-2-enenitrile]
